pIC50: −log10 of the molar value.
Tests used:
K-Ras G12V = target: T1, K-Ras G12V (Homo sapiens, UniProt P01116, G12V); assay: PPI-HTRF assay, K-Ras G12V / SOS1 interaction; type: biochemical; details: HTRF, K-Ras G12V; read-out: PPI-HTRF-5 nM (K-Ras G12V IC50)
T1 construct: made in house; host or cells: E. coli, e.g. BL21 (DE3)
In short: (§1)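 GST-tagged K-Ras (G12D, G12V, G12S or wildtype) with anti-GST-Eu(K) donor was mixed with His-hSOS1 and anti-6His-XL665 acceptor in HEPES pH 7.4 buffer with NaCl, DTT, BSA and Igepal. After about 10 min, HTRF was read (ex 337 nm, em 620/665 nm). IC50 came from the 665/620 ratio, with duplicates from 10 μM down to 0.01 μM.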

SW620 cells = assay: Ras cellular assay, cell proliferation SW620; type: cell-based; details: Homo sapiens, SW-620
Source text: For example, this assay can be also used to assess selective growth inhibition of a mutant Ras protein relative to a wildtype, or relative to a different mutant Ras protein.

K-Ras G12S = target: T2, K-Ras G12S (Homo sapiens, UniProt P01116, G12S); assay: PPI-HTRF assay, K-Ras G12S / SOS1 interaction; type: biochemical; details: read-out: PPI-HTRF-5 nM (K-Ras G12S IC50)
T2 construct: made in house; host or cells: E. coli, e.g. BL21 (DE3)
T2 sequence (P01116 1-188 isoform P01116-2 G12S): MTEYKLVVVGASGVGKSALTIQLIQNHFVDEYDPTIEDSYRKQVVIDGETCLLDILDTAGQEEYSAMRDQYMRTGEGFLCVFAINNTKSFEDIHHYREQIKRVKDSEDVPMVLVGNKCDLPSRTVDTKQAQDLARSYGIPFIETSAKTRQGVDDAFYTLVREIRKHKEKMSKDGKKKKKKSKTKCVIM
In short: as §1

K-Ras G12D = target: T3, K-Ras G12D (Homo sapiens, UniProt P01116, G12D); assay: PPI-HTRF assay, K-Ras G12D / SOS1 interaction; type: biochemical; details: HTRF, K-Ras G12D; read-out: PPI-HTRF-5 nM (K-Ras G12D IC50)
T3 construct: made in house; host or cells: E. coli, e.g. BL21 (DE3)
T3 sequence (P01116 1-188 isoform P01116-2 G12D): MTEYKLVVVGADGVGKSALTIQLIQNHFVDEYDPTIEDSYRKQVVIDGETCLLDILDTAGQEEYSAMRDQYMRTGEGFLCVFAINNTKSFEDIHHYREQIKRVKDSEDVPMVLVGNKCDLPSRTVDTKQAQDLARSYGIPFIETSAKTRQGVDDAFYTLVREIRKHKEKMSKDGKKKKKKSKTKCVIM
In short: as §1

wildtype K-Ras = target: T4, wildtype K-Ras (Homo sapiens, UniProt P01116); assay: PPI-HTRF assay, wildtype K-Ras / SOS1 interaction; type: biochemical; details: HTRF, K-Ras wt; read-out: PPI-HTRF-5 nM (K-Ras wt IC50)
T4 construct: made in house; host or cells: E. coli, e.g. BL21 (DE3)
T4 sequence (P01116 1-188 isoform P01116-2): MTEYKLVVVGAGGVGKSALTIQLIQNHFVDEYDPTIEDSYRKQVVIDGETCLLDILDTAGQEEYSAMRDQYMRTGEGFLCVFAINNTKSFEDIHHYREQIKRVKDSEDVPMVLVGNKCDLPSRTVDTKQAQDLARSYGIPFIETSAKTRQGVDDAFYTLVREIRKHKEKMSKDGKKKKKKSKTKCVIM
In short: as §1

A549 cells = assay: Ras cellular assay, cell proliferation A549; type: cell-based; details: Homo sapiens
In short: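 G12S-mutant A549 cells (800/well) in RPMI-1640 plus 10% heat-inactivated FBS, standard or ultra-low attachment 384-well plates, dosed the day after plating with a 10-point 3-fold series. Viability by CellTiter-Glo luminescence about 6 days later; IC50 from four-parameter fit.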

GP2D cells = assay: Ras cellular assay, cell proliferation GP2D; type: cell-based
In short: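 Growth inhibition read by CellTiter-Glo luminescence roughly 5 days after compound addition, which followed overnight plating of G12D-mutant GP2D cells (e.g., 800 per well). Compounds were tested as a serial dilution (e.g., 9 points, 3-fold), with IC50 fitted by four-parameter model.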

Measured: pIC50

T1 sequence (P01116 1-188 isoform P01116-2 G12V): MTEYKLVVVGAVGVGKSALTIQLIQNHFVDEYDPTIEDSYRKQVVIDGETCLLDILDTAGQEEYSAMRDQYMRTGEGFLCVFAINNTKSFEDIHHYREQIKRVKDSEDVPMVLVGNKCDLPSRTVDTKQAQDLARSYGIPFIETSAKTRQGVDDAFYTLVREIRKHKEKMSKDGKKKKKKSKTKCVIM

COC1CCC2COc3c(Cl)c(-c4ccc(F)c5sc(N)c(C#N)c45)c(F)c4nc(OC[C@@]56CCCN5C[C@H](F)C6)nc(c34)N2C1 (stereo partly drawn) [compound 182, 2-amino-4-(6-chloro-4-fluoro-2-(((2R,7aS)-2-fluorotetrahydro-1H-pyrrolizin-7a(5H)-yl)methoxy)-11-methoxy-8,8a,9,10,11,12-hexahydropyrido[2′,1′:3,4][1,4]oxazepino [5,6,7-de]quinazolin-5-yl)-7-fluorobenzo[b]thiophene-3-carbonitrile]
> 5.30: all assays above

N#Cc1c(N)sc2c(F)ccc(-c3c(Cl)c4c5c(nc(OC[C@@]67CCCN6C[C@H](F)C7)nc5c3F)N3C(CO)CCC3CO4)c12 (stereo partly drawn) [compound 185, 2-amino-4-(6-chloro-4-fluoro-2-(((2R,7aS)-2-fluorotetrahydro-1H-pyrrolizin-7a(5H)-yl)methoxy)-11-(hydroxymethyl)-8a,9,10,11-tetrahydro-8H-pyrrolo[2′,1′:3,4][1,4]oxazepino[5,6,7-de]quinazolin-5-yl)-7-fluorobenzo[b]thiophene-3-carbonitrile]
> 5.30: all assays above

CCN1c2nc(OC[C@@]34CCCN3C[C@H](F)C4)nc3c(F)c(-c4ccc(F)c5sc(N)c(C#N)c45)c(Cl)c(c23)OCC2COCC21 (stereo partly drawn) [compound 186, 2-amino-4-(6-chloro-12-ethyl-4-fluoro-2-(((2R,7aS)-2-fluorotetrahydro-1H-pyrrolizin-7a(5H)-yl)methoxy)-8a,9,11a,12-tetrahydro-8H,11H-furo[3′,4′:6,7][1,5]oxazocino[4,3,2-de]quinazolin-5-yl)-7-fluorobenzo[b]thiophene-3-carbonitrile]
> 5.30: all assays above

N#Cc1c(N)sc2c(F)ccc(-c3c(Cl)c4c5c(nc(OC[C@@]67CCCN6C[C@H](F)C7)nc5c3F)N(CC(F)F)C3COCC3CO4)c12 (stereo partly drawn) [compound 188, 2-amino-4-(6-chloro-12-(2,2-difluoroethyl)-4-fluoro-2-(((2R,7aS)-2-fluorotetrahydro-1H-pyrrolizin-7a(5H)-yl)methoxy)-8a,9,11a,12-tetrahydro-8H,11H-furo[3′,4′:6,7][1,5]oxazocino[4,3,2-de]quinazolin-5-yl)-7-fluorobenzo[b]thiophene-3-carbonitrile]
> 5.30: all assays above

N#Cc1c(N)sc2c(F)ccc(-c3c(Cl)c4c5c(nc(OC[C@@]67CCCN6C[C@H](F)C7)nc5c3F)N3C(CCCC3C(F)F)CO4)c12 (stereo partly drawn) [compound 189, 2-amino-4-(6-chloro-12-(difluoromethyl)-4-fluoro-2-(((2R,7aS)-2-fluorotetrahydro-1H-pyrrolizin-7a(5H)-yl)methoxy)-8,8a,9,10,11,12-hexahydropyrido[2′,1′:3,4][1,4]oxazepino [5,6,7-de]quinazolin-5-yl)-7-fluorobenzo[b]thiophene-3-carbonitrile]
> 5.30: all assays above

N#Cc1c(N)sc2c(F)ccc(-c3c(Cl)c4c5c(nc(OC[C@@]67CCCN6C[C@H](F)C7)nc5c3F)N3CC[C@H]3CO4)c12 [compound 192, 2-amino-4-((11aS)-9-chloro-7-fluoro-5-(((2R,7aS)-2-fluorotetrahydro-1H-pyrrolizin-7a(5H)-yl)methoxy)-1,2,11,11a-tetrahydroazeto[2′,1′:3,4][1,4]oxazepino [5,6,7-de]quinazolin-8-yl)-7-fluorobenzo[b]thiophene-3-carbonitrile]
> 5.30: all assays above

N#Cc1c(N)sc2c(F)ccc(-c3c(Cl)c4c5c(nc(OCC67CCCN6C[C@H](F)C7)nc5c3F)N3CCCCCC3CO4)c12 (stereo partly drawn) [compound 193, 2-amino-4-(3-chloro-1-fluoro-13-(((2R,7aS)-2-fluorotetrahydro-1H-pyrrolizin-7a(5H)-yl)methoxy)-5a,6,7,8,9,10-hexahydro-5H-azepino[2′,1′:3,4][1,4]oxazepino[5,6,7-de]quinazolin-2-yl)-7-fluorobenzo[b]thiophene-3-carbonitrile]
> 5.30: all assays above

N#Cc1c(N)sc2c(F)ccc(-c3c(Cl)c4c5c(nc(OC[C@@]67CCCN6C[C@H](F)C7)nc5c3F)N3CCCC[C@@H]3CCO4)c12 [compound 196, 2-amino-4-((6aR)-3-chloro-1-fluoro-13-(((2R,7aS)-2-fluorotetrahydro-1H-pyrrolizin-7a(5H)-yl)methoxy)-6,6a,7,8,9,10-hexahydro-5H-pyrido[11,2′:5,6][1,5]oxazocino[4,3,2-de]quinazolin-2-yl)-7-fluorobenzo[b]thiophene-3-carbonitrile]
> 5.30: all assays above

N#Cc1c(N)sc2c(F)ccc(-c3c(Cl)c4c5c(nc(OC[C@@]67CCCN6C[C@H](F)C7)nc5c3F)N3[C@H](CCO4)C[C@@H]4OCC[C@@H]43)c12 [compound 200, 2-amino-4-((6aR,7aS,10aS)-3-chloro-1-fluoro-13-(((2R,7aS)-2-fluorotetrahydro-1H-pyrrolizin-7a(5H)-yl)methoxy)-5,6,6a,7,7a,9,10,10a-octahydrofuro[2″,3″:4′,5′]pyrrolo[1′,2′:5,6][1,5]oxazocino[4,3,2-de]quinazolin-2-yl)-7-fluorobenzo[b]thiophene-3-carbonitrile]
> 5.30: all assays above

N#CCC1CCC2COc3c(Cl)c(-c4ccc(F)c5sc(N)c(C#N)c45)c(F)c4nc(OCC56CCCN5C[C@H](F)C6)nc(c34)N2C1 (stereo partly drawn) [compound 204, 2-amino-4-(6-chloro-11-(cyanomethyl)-4-fluoro-2-(((2R)-2-fluorotetrahydro-1H-pyrrolizin-7a(5H)-yl)methoxy)-8,8a,9,10,11,12-hexahydropyrido[2′,1′:3,4][1,4]oxazepino [5,6,7-de]quinazolin-5-yl)-7-fluorobenzo[b]thiophene-3-carbonitrile]
> 5.30: all assays above

N#Cc1c(N)sc2c(F)ccc(-c3c(Cl)c4c5c(nc(OC[C@@]67CCCN6C[C@H](F)C7)nc5c3F)N3CCC(C#N)CC3CO4)c12 (stereo partly drawn) [compound 205, 5-(2-amino-3-cyano-7-fluorobenzo[b]thiophen-4-yl)-6-chloro-4-fluoro-2-(((2R,7aS)-2-fluorotetrahydro-1H-pyrrolizin-7a(5H)-yl)methoxy)-8,8a,9,10,11,12-hexahydropyrido[2′,1′:3,4][1,4]oxazepino [5,6,7-de]quinazoline-10-carbonitrile]
> 5.30: all assays above
